Common to all, as to format: cell-based
The target of assay [1] is T1, human GLP-1 receptor (Homo sapiens, UniProt P43220, L260F).
T1 construct: The human GLP-1 receptor (GLP-1R) cDNA cloned in pUC18 was recloned into a pCIneo vector to prepare pCIneoGLP-1R; expressed in transfected cells; host or cells: CHO cell lines, transient transfection with FuGENE6, then frozen
The experiment in a line: Aequorin luminescence in frozen CHO cell lines expressing human GLP-1 receptor, modified CNG channel and modified aequorin. As to conditions: even at a concentration 1 million times higher compared with the active forms of GLP-1; FIG. 24. As for the experimental part:
1 ml (3×10^6 cells/ml) of the frozen cells prepared in 1 was thawed in a warm bath and suspended in 10 mL of a washing buffer.
1 ml (3×10^6 cells/ml) of the frozen cells prepared in 1 was thawed in a warm bath and suspended in 10 mL of a washing buffer. The suspension was centrifuged at 1000 rpm for 5 minutes. 12 mL of a culture buffer was added to the obtained precipitate, and 6 μL of 4 mM ViviRen was added thereto.

Another assay concerns the target T2, human V2R (Homo sapiens, UniProt P30518).
T2 construct: The human vasopressin receptor isoform 2 (V2R) cDNA cloned in pUC18 was recloned into a pEF2 vector to prepare pEFhV2R; expressed in transfected cells; host or cells: CHO cells, transient transfection with FuGENE6, then frozen
The experiment in a line: Detection of AVP and V2R antagonist by desensitization (calcium-containing medium, addition of AVP, then forskolin). An excerpt:
This method utilizes the desensitization of the cAMP dependent calcium channel to detect the activity of a V2R antagonist. […] In this state, the addition of forskolin that activates adenylate cyclase forms cAMP, which in turn activates the cAMP dependent calcium channel (e.g., CNG calcium). Thus, the calcium sensitive protein emits luminescence. […] In this state, the subsequent addition of […] desensitizes the once activated cAMP dependent calcium channel, which is no longer activated by the addition of forskolin.
1 ml (3×10^6 cells/ml) of the frozen cells prepared in 1 was thawed in a warm bath and suspended in 10 mL of a washing buffer. The suspension was centrifuged at 1000 rpm for 5 minutes. 12 mL of a culture buffer was added to the obtained precipitate, and 6 μL of 4 mM ViviRen was added thereto. The mixture was seeded at 50 μL/well into a 96-well plate. […] Subsequently, 10^−4 M forskolin was further added thereto at 50 μL/well, and the amount of luminescence was measured using a luminometer (FIG. 16).

Assay [2] deals with T1, human GLP-1 receptor. The experiment in a line: GLP-1 antagonist activity in CHO cells expressing human GLP-1 receptor, GLP-1 added after culture. As to conditions: 3 hours culture, then 10^-11 M GLP-1; FIG. 27. Here is the method: Next, the activity of a GLP-1 antagonist was measured. 1 ml (3×10^6 cells/ml) of the frozen cells prepared in 1 was thawed in a warm bath and suspended in 10 mL of a washing buffer. The suspension was centrifuged at 1000 rpm for 5 minutes. 12 mL of a culture buffer was added to the obtained precipitate, and 6 μL of 4 mM ViviRen was added thereto. The mixture was seeded at 90 μL/well into a 96-well plate.
Exendin-4 (9-39) was added thereto at 10 μL/well, and the cells were cultured for 3 hours. 10^−11 M GLP-1 was added thereto at 10 μL/well, and the amount of luminescence was measured using a luminometer.

T1 sequence (P43220 24-463 L260F): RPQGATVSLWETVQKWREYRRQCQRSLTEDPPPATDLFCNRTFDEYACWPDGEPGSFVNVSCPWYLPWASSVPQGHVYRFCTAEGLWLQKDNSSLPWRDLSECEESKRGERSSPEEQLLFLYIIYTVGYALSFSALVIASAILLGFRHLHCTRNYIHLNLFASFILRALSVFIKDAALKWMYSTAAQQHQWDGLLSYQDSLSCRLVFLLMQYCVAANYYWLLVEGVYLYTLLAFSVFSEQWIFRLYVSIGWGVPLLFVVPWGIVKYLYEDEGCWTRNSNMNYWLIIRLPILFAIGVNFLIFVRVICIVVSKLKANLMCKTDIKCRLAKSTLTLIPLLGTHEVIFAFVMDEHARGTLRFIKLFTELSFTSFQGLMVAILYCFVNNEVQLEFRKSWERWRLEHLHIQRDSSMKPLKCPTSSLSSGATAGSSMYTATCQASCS
T2 sequence (P30518 1-309 isoform P30518-2): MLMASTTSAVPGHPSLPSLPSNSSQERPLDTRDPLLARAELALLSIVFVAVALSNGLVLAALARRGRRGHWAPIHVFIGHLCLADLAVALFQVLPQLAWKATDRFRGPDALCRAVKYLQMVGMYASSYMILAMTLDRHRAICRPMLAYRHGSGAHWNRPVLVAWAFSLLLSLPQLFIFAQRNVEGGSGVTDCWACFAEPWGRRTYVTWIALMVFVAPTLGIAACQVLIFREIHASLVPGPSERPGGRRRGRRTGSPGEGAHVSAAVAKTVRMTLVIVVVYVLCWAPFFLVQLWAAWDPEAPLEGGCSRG

As for GLP-1 (9-36 amide), the “reactivity of the kit” value on human GLP-1 receptor [1] is “hardly reacted”.

Take `Cc1ccccc1C(=O)Nc1ccc(C(=O)N2CCCC(O)c3cc(Cl)ccc32)c(C)c1` (stereo not drawn) [OPC-41061]: on human V2R (10^-7 M AVP, then 10^-4 M forskolin, FIG. 16), the “luminescence of forskolin after antagonist and AVP” value was “the luminescence of forskolin was detected in a concentration dependent manner”. For the same compound, the “inhibition of the action of added AVP (amount of luminescence)” value on human V2R (cells cultured 3 hours with compound in calcium-containing medium, then 10^-7 M AVP, FIG. 14) is reported as “inhibited the action of added AVP in a concentration dependent manner”.

Take “GLP-2: incretin acting on other receptors”: the “reactivity of the kit” value with human GLP-1 receptor [1] is given as “hardly reacted”.

As for “exendin-4 (9-39): GLP-1 receptor antagonist”, in the assay with human GLP-1 receptor [2], the “inhibition of the agonistic action of added GLP-1” value is reported as “inhibited the agonistic action of added GLP-1 in a concentration dependent manner”.

Consider GIP: incretin acting on other receptors, for which the “reactivity of the kit” value in the assay with human GLP-1 receptor [1] is reported as “hardly reacted”.

These data come from patent US9316588B2, “Bioassay method for detecting physiologically active substance” (OTSUKA PHARMACEUTICAL CO., LTD., priority 2010, dated 2016).
